Experimental data as given in ChEMBL document CHEMBL6103573, “Discovery of novel thienopyridine indole derivatives as inhibitors of tubulin polymerization targeting the colchicine-binding site with potent anticancer activities” (Eur J Med Chem, 2025).
Activity calls are given as the source filed them. The rule behind the calls is not given here.

Columns and labels:
HGC-27 [1] = experiment: Induction of apoptosis in human HGC-27 cells assessed as increase in cleaved PARP expression at 0.25 to 2.0 nmol/L incubated for 48 hrs by Western blotting analysis; format: functional, cell-based; conditions: dose 0.25-2 nmol/L
[2] = Toxicity in female BALB/c-nu nude mouse xenografted with human MGC-803 cells assessed as change in spleen morphology at 5 mg/kg, po administrated every other day for 11 times and measured after 21 days by hematoxylin and eosin staining based analysis; format: organism-based; conditions: in vivo, 504 h, time 21 day
Tubulin (Homo sapiens) [3] = molecular target: T1, Tubulin (Homo sapiens) (UniProt P68371+Q9H4B7+P0DPH7+P68366+Q13509+Q71U36+P04350+Q3ZCM7+P07437+P68363+Q9BQE3+Q6PEY2+Q13885+Q9BVA1+Q9BUF5); experiment: Disruption of microtubule network in human MGC-803 cells assessed as irregular cellular morphology at 0.25 to 2.0 nmol/L incubated for 24 hrs by DAPI staining based fluorescence microscopic analysis; format: cell-based; conditions: dose 0.25-2 nmol/L
HGC-27 [4] = experiment: Induction of cell cycle arrest in human HGC-27 cells assessed as downregulation of Cdc25c level measured after 48 hrs by Western blot analysis; format: functional, cell-based; conditions: dose 0.25-2 nmol/L
MGC-803 [5] = experiment: Induction of apoptosis in human MGC-803 cells assessed as late apoptotic cells at 1.5 nmol/L incubated for 48 hrs by Annexin V-FITC/propidium iodide staining based flow cytometry analysis (reference value: 2.22 %); format: functional
MGC-803 [6] = experiment: Induction of apoptosis in human MGC-803 cells assessed as late apoptotic cells at 1.0 nmol/L incubated for 48 hrs by Annexin V-FITC/propidium iodide staining based flow cytometry analysis (reference value: 2.22 %); format: functional
MGC-803 [7] = experiment: Inhibition of colony formation in human MGC-803 cells at 0.5 nmol/L incubated for 7 days by crystal violet staining based colony formation assay relative to control; format: functional; conditions: MGC-803, 168 h, time 7 day
[8] = molecular target: T2, Tubulin beta (Homo sapiens) (UniProt P68371+Q9H4B7+Q13509+P04350+Q3ZCM7+P07437+Q13885+Q9BVA1+Q9BUF5+A6NNZ2); experiment: Competitive binding affinity to beta-tubulin colchicine binding site in human MGC-803 cells assessed as inhibition of EBI-beta-tubulin adduct band formation by measuring reduction in adduct band intensity preincubated for 2 hrs followed by EBI addition and measured after 2 hrs by Western blotting analysis; format: cell-based; conditions: dose 0.1-1 µmol/L, time 4.0 hrs
MGC-803 [9] = experiment: Induction of cell cycle arrest at G2 phase in human MGC-803 cells assessed as increase in p-Histone H3 level at 0.25 to 2.0 nmol/L measured after 48 hrs by Western blot analysis; format: functional, cell-based; conditions: dose 0.25-2 nmol/L
MGC-803 [10] = experiment: Induction of apoptosis in human MGC-803 cells assessed as nuclei shrinkage at 0.25 to 2.0 nmol/L incubated for 48 hrs by DAPI staining based analysis; format: functional, cell-based; conditions: dose 0.25-2 nmol/L
HGC-27 [11] = experiment: Induction of apoptosis in human HGC-27 cells assessed as early apoptotic cells at 1.0 nmol/L incubated for 48 hrs by Annexin V-FITC/propidium iodide staining based flow cytometry analysis (reference value: 2.04 %); format: functional
MGC-803 [12] = experiment: Induction of cell cycle arrest in human MGC-803 cells assessed as accumulation of cells at G2/M phase at 2 nmol/L incubated for 24 hrs by RNase A/propidium iodide staining based flow cytometric analysis relative to control; format: functional
HGC-27 [13] = experiment: Induction of apoptosis in human HGC-27 cells assessed as downregulation of Bcl-2 expression incubated for 48 hrs by Western blotting analysis; format: functional, cell-based; conditions: dose 0.25-2 nmol/L
Tubulin (Homo sapiens) [14] = molecular target: T1, Tubulin (Homo sapiens); experiment: Disruption of microtubule network in human HGC-27 cells assessed as reduction in filamentous microtubule structure formation at 0.25 to 2.0 nmol/L incubated for 24 hrs by DAPI staining based fluorescence microscopic analysis; format: cell-based; conditions: dose 0.25-2 nmol/L
MGC-803 [15] = experiment: Induction of cell cycle arrest in human MGC-803 cells assessed as downregulation of Cdc25c level measured after 48 hrs by Western blot analysis; format: functional, cell-based; conditions: dose 0.25-2 nmol/L
HGC-27 [16] = experiment: Induction of apoptosis in human HGC-27 cells assessed as appearance of bright cells at 0.25 to 2.0 nmol/L incubated for 48 hrs by bright field microscopic analysis; format: functional, cell-based; conditions: dose 0.25-2 nmol/L
MGC-803 [17] = experiment: Induction of apoptosis in human MGC-803 cells assessed as increase in total apoptotic rate at 2 nmol/L incubated for 48 hrs by Annexin V-FITC/propidium iodide staining based flow cytometry analysis relative to control; format: functional
MGC-803 [18] = experiment: Induction of apoptosis in human MGC-803 cells assessed as increase in cleaved Caspase-9 expression at 0.25 to 2.0 nmol/L incubated for 48 hrs by Western blotting analysis; format: functional, cell-based; conditions: dose 0.25-2 nmol/L
[19] = Toxicity in female BALB/c-nu nude mouse xenografted with human MGC-803 cells assessed as body weight loss at 5 mg/kg, po administrated every other day for 11 times and measured after 21 days; format: organism-based; conditions: in vivo, 504 h, time 21 day
HGC-27 [20] = experiment: Antiproliferative activity against human HGC-27 cells by MTT assay; format: functional, cell-based; conditions: dose 0.25-2 nmol/L
MGC-803 [21] = experiment: Induction of apoptosis in human MGC-803 cells assessed as increase in nuclei brightness at 0.25 to 2.0 nmol/L incubated for 48 hrs by DAPI staining based analysis; format: functional, cell-based; conditions: dose 0.25-2 nmol/L
HGC-27 [22] = experiment: Induction of apoptosis in human HGC-27 cells assessed as late apoptotic cells at 0.25 nmol/L incubated for 48 hrs by Annexin V-FITC/propidium iodide staining based flow cytometry analysis (reference value: 3.70 %); format: functional
MGC-803 [23] = experiment: Antiproliferative activity against human MGC-803 cells assessed as reduction in cell viability at 0.25 to 2.0 nmol/L by MTT assay; format: functional, cell-based; conditions: dose 0.25-2 nmol/L, time 6-48 hrs
MGC-803 [24] = experiment: Anti-migratory activity against human MGC-803 cells assessed as reduction in wound healing area measured after 24 hrs by wound healing assay; format: functional, cell-based; conditions: dose 0.5-1 nmol/L
MGC-803 [25] = experiment: Antiproliferative activity against human MGC-803 cells assessed as survival rate at 2 nmol/L measured after 6 hrs by MTT assay relative to control; format: functional; conditions: read-out: Survival
HGC-27 [26] = experiment: Antiproliferative activity against human HGC-27 cells assessed as cell viability at 0.5 to 2 nmol/L incubated for 48 hrs by MTT assay (reference value: 86 %); format: functional; conditions: dose 0.5-2 nmol/L, at 0.5 to 2 nM
SGC-7901 = experiment: Antiproliferative activity against human SGC-7901 cells assessed as inhibition of cell proliferation incubated for 48 hrs by MTT assay; format: functional, cell-based; conditions: SGC-7901, 48 h
HGC-27 [27] = experiment: Induction of apoptosis in human HGC-27 cells assessed as appearance of ruptured cells at 0.25 to 2.0 nmol/L incubated for 48 hrs by bright field microscopic analysis; format: functional, cell-based; conditions: dose 0.25-2 nmol/L
HUVEC = experiment: Anti-angiogenesis activity in HUVEC cells assessed as reduction in cell viability by measuring survival rate at 2 nmol/L incubated for 12 hrs by MTT assay relative to control; format: functional; conditions: Homo sapiens, read-out: Survival
[28] = molecular target: T2, Tubulin beta (Homo sapiens); experiment: Competitive binding affinity to beta-tubulin colchicine binding site in human MGC-803 cells assessed as reduction in EBI-beat tubulin adduct to beta-tubulin ratio preincubated for 2 hrs followed by EBI addition and measured after 2 hrs by Western blotting analysis; format: cell-based; conditions: dose 0.1-1 µmol/L, time 4.0 hrs
HGC-27 [29] = experiment: Induction of apoptosis in human HGC-27 cells assessed as cell contraction at 0.25 to 2.0 nmol/L incubated for 48 hrs by bright field microscopic analysis; format: functional, cell-based; conditions: dose 0.25-2 nmol/L
MGC-803 [30] = experiment: Induction of apoptosis in human MGC-803 cells assessed as increase in cleaved Caspase-3 expression at 0.25 to 2.0 nmol/L incubated for 48 hrs by Western blotting analysis; format: functional, cell-based; conditions: dose 0.25-2 nmol/L

## CN(c1ccc2c(ccn2C)c1)c1nc(N2CCCC2)nc2sccc12
HGC-27 [1]
  Activity: Active
[2]
  Activity: Non-toxic
Tubulin (Homo sapiens) [3]
  Activity: Active
HGC-27 [4]
  Activity: Dose-dependent-effect
MGC-803 [5]
  Activity: 6.33%
MGC-803 [6]
  Activity: 3.78%
MGC-803 [7]
  inhibition at 0.0005 µM: > 90%
[8]
  Activity: Dose-dependent-effect
MGC-803 [9]
  Activity: Active
MGC-803 [10]
  Activity: Active
HGC-27 [11]
  Activity: 11.52%
MGC-803 [12]
  Activity: 28.5%
HGC-27 [13]
  Activity: Dose-dependent-effect
Tubulin (Homo sapiens) [14]
  Activity: Active
MGC-803 [15]
  Activity: Dose-dependent-effect
HGC-27 [16]
  Activity: Active
MGC-803 [17]
  Activity: 60%
MGC-803 [18]
  Activity: Active
[19]
  Activity: Non-toxic
HGC-27 [20]
  Activity: Dose-dependent-effect
MGC-803 [21]
  Activity: Active
HGC-27 [22]
  Activity: 3.14%
MGC-803 [23]
  Activity: Time-dependent-effect
MGC-803 [24]
  Activity: Dose-dependent-effect
MGC-803 [25]
  viability at 0.002 µM: 86%
HGC-27 [26]
  Activity: 38%
SGC-7901
  IC50: 2.01 nM
HGC-27 [27]
  Activity: Active
HUVEC
  viability at 0.002 µM: 75.6%
[28]
  Activity: Dose-dependent-effect
HGC-27 [29]
  Activity: Active
MGC-803 [30]
  Activity: Active
